The record followed here is US8785488B2 (Exelixis Patent Company LLC, priority 2009, dated 2014).

One assay addresses T1, h-TGR5 (Homo sapiens, UniProt Q8TDU6).
T1 construct: expressed in transfected cells
T1 sequence (Q8TDU6 1-330): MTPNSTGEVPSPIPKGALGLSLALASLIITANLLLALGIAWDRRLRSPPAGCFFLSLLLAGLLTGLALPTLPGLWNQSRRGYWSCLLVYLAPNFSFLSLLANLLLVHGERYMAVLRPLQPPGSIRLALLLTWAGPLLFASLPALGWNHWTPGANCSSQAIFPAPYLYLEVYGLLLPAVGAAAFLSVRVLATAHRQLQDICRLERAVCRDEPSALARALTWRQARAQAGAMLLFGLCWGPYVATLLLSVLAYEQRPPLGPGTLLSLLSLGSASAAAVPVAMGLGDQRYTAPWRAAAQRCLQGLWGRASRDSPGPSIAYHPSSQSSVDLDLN
Kind of assay: TGR5 cAMP Assay using Cisbio cAMP Dynamic2 htrf kit (hTGR5CRE-luc HEK 293 cells). The assay is classed as cell-based. The following applies: h-TGR5 cAMP EC50, Table 1; read-out: cAMP (EC50). The essentials: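 […], 4000 hTGR5CRE-luc HEK 293 cells per well, with 0.5 mM IBMX and d2-cAMP, were incubated 30 min at room temperature with compounds in 8-point half-log series, in quadruplicate.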

A further assay has as its target T2, human TGR5 (h-TGR5) (Homo sapiens, UniProt Q8TDU6).
T2 construct: expressed in transfected cells
T2 sequence (Q8TDU6 1-330): T1 sequence (Q8TDU6 1-330)
Kind of assay: TGR5/CRE-Luciferiase Assay (HEK 293 hTGR5/CRE-Luc cells). Type of assay: cell-based. The following applies: h-TGR5 CRE-Luc EC50, Table 1; read-out: CRE-Luc (EC50). The essentials:
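HEK293 cells stably carrying hTGR5 and a CRE-luciferase reporter were exposed to serially diluted compounds (diluted in DMEM with 5% DMSO) for 6 h. Cells were then lysed in luciferase buffer, luminescence was read, and EC50 values were derived from dose-response curves.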

Some results are limits rather than exact numbers.

Usually EC50 stands for the concentration that produces a half-maximal response.

For the compound `CC(C)(c1ccc(Cl)c(S(N)(=O)=O)c1)c1cnc(SCc2c(F)cc(C(=O)O)cc2Cl)n1-c1ccc(F)cc1` [4-({[5-{1-[3-(aminosulfonyl)-4-chlorophenyl]-1-methylethyl}-1-(4-fluorophenyl)-1H-imidazol-2-yl]thio}methyl)-3-chloro-5-fluorobenzoic acid], the concentration for a half-maximal effect (EC50) on h-TGR5 and at human TGR5 (h-TGR5) was 100 to 1000 nM each time.

Consider `CC(C)(c1ccc(C(F)F)c(F)c1)c1cnc(SCc2ccc(S(=O)(=O)NC(=O)NN3CCCC3)cc2Cl)n1-c1ccc(F)cc1` [3-chloro-4-({[5-{1-[4-(difluoromethyl)-3-fluorophenyl]-1-methylethyl}-1-(4-fluorophenyl)-1H-imidazol-2-yl]thio}methyl)-N-[(pyrrolidin-1-ylamino)carbonyl]benzenesulfonamide], for which the EC50 on h-TGR5 and on human TGR5 (h-TGR5) was 100 to 1000 nM in each case.

For the compound `CC(C)(c1ccc(Cl)c(Cl)c1)c1cnc(SCc2ccc(Cl)c(S(N)(=O)=O)c2)n1-c1ccc(F)cc1` [2-chloro-5-[({5-[1-(3,4-dichlorophenyl)-1-methylethyl]-1-(4-fluorophenyl)-1H-imidazol-2-yl}thio)methyl]benzenesulfonamide], the 50% effective concentration (EC50) on h-TGR5 and on human TGR5 (h-TGR5) was < 100 nM in each case.

For the compound `COc1cc(-n2c(C(C)(C)c3ccc(Cl)c(Cl)c3)cnc2SCc2ccc(F)cc2Cl)ccc1F` [2-{[(2-chloro-4-fluorophenyl)methyl]thio}-5-[1-(3,4-dichlorophenyl)-1-methylethyl]-1-[4-fluoro-3-(methyloxy)phenyl]-1H-imidazole], the EC50 on h-TGR5 and on human TGR5 (h-TGR5) was 100 to 1000 nM throughout.

Turning to `COc1c(Cl)cc(C(C)(C)c2cnc(SCc3c(F)cccc3Cl)n2-c2ccc(F)cc2)cc1Cl` [2-{[(2-chloro-6-fluorophenyl)methyl]thio}-5-{1-[3,5-dichloro-4-(methyloxy)phenyl]-1-methylethyl}-1-(4-fluorophenyl)-1H-imidazole], the EC50 at h-TGR5 and at human TGR5 (h-TGR5) was < 100 nM in each case.

In the case of `COc1cc(C(C)(C)c2cnc(SCc3c(F)cc(S(=O)(=O)O)cc3Cl)n2-c2ccc(F)cc2)ccc1Cl` [3-chloro-4-({[5-{1-[4-chloro-3-(methyloxy)phenyl]-1-methylethyl}-1-(4-fluorophenyl)-1H-imidazol-2-yl]thio}methyl)-5-fluorobenzenesulfonic acid], the 50% effective concentration (EC50) on h-TGR5 and at human TGR5 (h-TGR5) was < 100 nM throughout.

`COc1cc(C(C)(C)c2cnc(NCc3ccc(Cl)cc3F)n2-c2ccc(F)cc2)ccc1Cl` [N-[(4-chloro-2-fluorophenyl)methyl]-5-{1-[4-chloro-3-(methyloxy)phenyl]-1-methylethyl}-1-(4-fluorophenyl)-1H-imidazol-2-amine]: the EC50 on h-TGR5 and on human TGR5 (h-TGR5) was 1000 to 10000 nM each time.

As for `CC(C)(c1ccc(F)c(F)c1)c1cnc(SCc2ccc(S(=O)(=O)NC(=O)NN3CCCC3)cc2Cl)n1-c1ccc(F)cc1` [3-chloro-4-[({5-[1-(3,4-difluorophenyl)-1-methylethyl]-1-(4-fluorophenyl)-1H-imidazol-2-yl}thio)methyl]-N-[(pyrrolidin-1-ylamino)carbonyl]benzenesulfonamide], the EC50 at h-TGR5 was 1000 to 10000 nM; at human TGR5 (h-TGR5), 100 to 1000 nM.

As for `COc1cc(C(C)(C)c2cnc(SCc3c(F)cc(C(=O)NC(CCCCNC(=N)N)C(=O)O)cc3Cl)n2-c2ccc(F)cc2)ccc1Cl` [N-6-[amino(imino)methyl]-N-2-{[3-chloro-4-({[5-{1-[4-chloro-3-(methyloxy)phenyl]-1-methylethyl}-1-(4-fluorophenyl)-1H-imidazol-2-yl]thio}methyl)-5-fluorophenyl]carbonyl}-L-lysine], the EC50 at h-TGR5 and on human TGR5 (h-TGR5) was < 100 nM in each case.

For the compound `CC(C)(c1ccc(Cl)c(Cl)c1)c1cnc(SCC2CCN(S(C)(=O)=O)C2)n1-c1ccc(F)cc1` (stereo not shown) [5-[1-(3,4-dichlorophenyl)-1-methylethyl]-1-(4-fluorophenyl)-2-({[1-(methylsulfonyl)pyrrolidin-3-yl]methyl}thio)-1H-imidazole], the EC50 at h-TGR5 and at human TGR5 (h-TGR5) was 100 to 1000 nM in each case.

As for `COc1cc(C(C)(C)c2cnc(SCc3c(F)cc(S(=O)(=O)NC(=O)NN4CCOCC4)cc3F)n2-c2ccc(F)cc2)ccc1Cl` [4-({[5-{1-[4-chloro-3-(methyloxy)phenyl]-1-methylethyl}-1-(4-fluorophenyl)-1H-imidazol-2-yl]thio}methyl)-3,5-difluoro-N-[(morpholin-4-ylamino)carbonyl]benzenesulfonamide], the half-maximal effective concentration (EC50) on h-TGR5 and at human TGR5 (h-TGR5) was < 100 nM in each case.

As for `COc1cc(C(C)(C)c2cnc(SCc3c(F)cc(C(C)(C)O)cc3Cl)n2-c2ccc(F)cc2)ccc1Cl` [2-[3-chloro-4-({[5-{1-[4-chloro-3-(methyloxy)phenyl]-1-methylethyl}-1-(4-fluorophenyl)-1H-imidazol-2-yl]thio}methyl)-5-fluorophenyl]propan-2-ol], the EC50 at h-TGR5 and at human TGR5 (h-TGR5) was < 100 nM each time.

As to `COc1cc(C(C)(C)c2cnc(SCc3c(F)cc(OCCNC(=N)N)cc3Cl)n2-c2ccc(F)cc2)ccc1F` [1-(2-{[3-chloro-5-fluoro-4-({[5-{1-[4-fluoro-3-(methyloxy)phenyl]-1-methylethyl}-1-(4-fluorophenyl)-1H-imidazol-2-yl]thio}methyl)phenyl]oxy}ethyl)guanidine], the EC50 on h-TGR5 and at human TGR5 (h-TGR5) was < 100 nM each time.

As for `CC(C)(c1ccc(Cl)c(Cl)c1)c1c(Cl)nc(SCc2c(F)cc(C(=O)O)cc2F)n1-c1ccc(F)cc1` [4-[({4-chloro-5-[1-(3,4-dichlorophenyl)-1-methylethyl]-1-(4-fluorophenyl)-1H-imidazol-2-yl}thio)methyl]-3,5-difluorobenzoic acid], the EC50 on h-TGR5 and at human TGR5 (h-TGR5) was 100 to 1000 nM in each case.

Consider `CC(C)(c1ccc(F)c(C#N)c1)c1cnc(SCc2c(F)cc(C(=O)O)cc2F)n1-c1ccc(F)cc1` [4-[({5-[1-(3-cyano-4-fluorophenyl)-1-methylethyl]-1-(4-fluorophenyl)-1H-imidazol-2-yl}thio)methyl]-3,5-difluorobenzoic acid], for which the EC50 on h-TGR5 and on human TGR5 (h-TGR5) was < 100 nM each time.

For the compound `CC(C)(c1ccc(Cl)c(Cl)c1)c1cnc(COC2CCN(S(C)(=O)=O)CC2)n1-c1ccc(F)cc1` [4-[({5-[1-(3,4-dichlorophenyl)-1-methylethyl]-1-(4-fluorophenyl)-1H-imidazol-2-yl}methyl)oxy]-1-(methylsulfonyl)piperidine], the EC50 at h-TGR5 fell in the range of 100 to 1000 nM; at human TGR5 (h-TGR5), 1000 to 10000 nM.

As for `COc1ccc(C(C)(C)c2cnc(SCc3c(F)cccc3Cl)n2-c2ccc(F)cc2)cc1` [2-{[(2-chloro-6-fluorophenyl)methyl]thio}-1-(4-fluorophenyl)-5-{1-methyl-1-[4-(methyloxy)phenyl]ethyl}-1H-imidazole], the values for the EC50 on h-TGR5 and on human TGR5 (h-TGR5) were 100 to 1000 nM and < 100 nM, respectively.

`CC(C)NC(=O)NS(=O)(=O)c1cc(CSc2ncc(C(C)(C)c3ccc(Cl)c(Cl)c3)n2-c2ccc(F)cc2)ccc1Cl` [2-chloro-5-[({5-[1-(3,4-dichlorophenyl)-1-methylethyl]-1-(4-fluorophenyl)-1H-imidazol-2-yl}thio)methyl]-N-{[(1-methylethyl)amino]carbonyl}benzenesulfonamide]: the concentration giving a half-maximal response (EC50) at h-TGR5 and at human TGR5 (h-TGR5) was 100 to 1000 nM throughout.

With `COc1cc(C(C)(C)c2cnc(SCc3c(F)cc(CCCCNC(=N)N)cc3F)n2-c2ccc(F)cc2)ccc1Cl` [1-{4-[4-({[5-{1-[4-chloro-3-(methyloxy)phenyl]-1-methylethyl}-1-(4-fluorophenyl)-1H-imidazol-2-yl]thio}methyl)-3,5-difluorophenyl]butyl}guanidine], the half-maximal effective concentration (EC50) on h-TGR5 and on human TGR5 (h-TGR5) was < 100 nM throughout.

Regarding `CCOC(=O)NS(=O)(=O)c1ccc(CSc2ncc(C(C)(C)c3ccc(S(N)(=O)=O)c(Cl)c3)n2-c2ccc(F)c(OC)c2)c(Cl)c1` [ethyl [(4-{[(5-{1-[4-(aminosulfonyl)-3-chlorophenyl]-1-methylethyl}-1-[4-fluoro-3-(methyloxy)phenyl]-1H-imidazol-2-yl)thio]methyl}-3-chlorophenyl)sulfonyl]carbamate], the EC50 at h-TGR5 and on human TGR5 (h-TGR5) was < 100 nM in each case.

For `COc1cc(C(C)(C)c2cnc(SCc3c(F)cc(C(=O)NCCS(=O)(=O)O)cc3Cl)n2-c2ccc(F)cc2)ccc1Cl` [2-({[3-chloro-4-({[5-{1-[4-chloro-3-(methyloxy)phenyl]-1-methylethyl}-1-(4-fluorophenyl)-1H-imidazol-2-yl]thio}methyl)-5-fluorophenyl]carbonyl}amino)ethanesulfonic acid], the EC50 on h-TGR5 and on human TGR5 (h-TGR5) was < 100 nM in each case.

Regarding `COc1ccc(Cc2cnc(SCc3ccc(F)cc3Cl)n2-c2ccc(F)cc2)cc1OC` [5-{[3,4-bis(methyloxy)phenyl]methyl}-2-{[(2-chloro-4-fluorophenyl)methyl]thio}-1-(4-fluorophenyl)-1H-imidazole], the EC50 at h-TGR5 and at human TGR5 (h-TGR5) was < 100 nM throughout.

For the compound `COc1cc(C(C)(C)c2cnc(SCc3ccc(S(=O)(=O)NC(=O)NN4CCCC4)cc3Cl)n2-c2ccc(F)cc2)ccc1Cl` [3-chloro-4-({[5-{1-[4-chloro-3-(methyloxy)phenyl]-1-methylethyl}-1-(4-fluorophenyl)-1H-imidazol-2-yl]thio}methyl)-N-[(pyrrolidin-1-ylamino)carbonyl]benzenesulfonamide], the EC50 at h-TGR5 and at human TGR5 (h-TGR5) was 100 to 1000 nM throughout.
